Assay results reported in ChEMBL document CHEMBL1139151, “Minor groove binder antibody conjugates employing a water soluble beta-glucuronide linker” (Bioorg Med Chem Lett, 2007).

Tests used:
Assay type in all cases: functional, cell-based
[1] = Cytotoxicity against CD30 positive Karpas 299 cells assessed as cell viability after 96 hrs; details: Homo sapiens, KARPAS-299, 96 h
L-428 = assay: Cytotoxicity against CD30 positive and CD70 negative L428 cells assessed as cell viability after 96 hrs; details: Homo sapiens, L-428, 96 h
[2] = Cytotoxicity against CD30 positive L540 Cy cells assessed as cell viability after 96 hrs; details: Homo sapiens, L540cy
CAKI-1 = assay: Cytotoxicity against CD70 positive Caki1 cells assessed as cell viability after 96 hrs; details: Homo sapiens, CAKI-1, 96 h

COc1ccc(/C=C/C(=O)N2CC(CCl)c3c2cc(N)c2ccccc32)cc1 (centres undefined) showed an IC50 [1] of 1.2 nM, an IC50 (L-428) of 0.1 nM and an IC50 [2] of 0.5 nM. The IC50 (CAKI-1) was 0.7 nM.
